{"source": "ChEMBL document CHEMBL5055626", "about": "(J Med Chem, 2021)", "key": {"[1]": {"biological_target": "T1, Neuronal acetylcholine receptor subunit alpha-7 (Rattus norvegicus, UniProt Q05941)", "T1 sequence (Q05941 whole entry)": "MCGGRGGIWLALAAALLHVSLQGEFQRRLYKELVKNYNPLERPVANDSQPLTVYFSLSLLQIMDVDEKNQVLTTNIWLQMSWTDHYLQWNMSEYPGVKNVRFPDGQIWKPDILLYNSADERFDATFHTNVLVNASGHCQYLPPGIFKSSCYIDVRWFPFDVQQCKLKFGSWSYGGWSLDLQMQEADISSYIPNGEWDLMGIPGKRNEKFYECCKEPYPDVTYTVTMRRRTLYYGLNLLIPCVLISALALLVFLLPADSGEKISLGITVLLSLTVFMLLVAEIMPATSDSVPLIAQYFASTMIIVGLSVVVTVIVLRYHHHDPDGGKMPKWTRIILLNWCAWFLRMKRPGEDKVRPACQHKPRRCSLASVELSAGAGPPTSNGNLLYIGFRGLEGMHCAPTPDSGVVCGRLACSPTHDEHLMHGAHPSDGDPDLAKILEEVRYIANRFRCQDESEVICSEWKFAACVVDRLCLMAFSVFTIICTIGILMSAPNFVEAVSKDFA", "test": "Antagonist activity at rat alpha7 nAChR expressed in xenopus oocytes assessed as inhibition of Ach- induced response at -70 mV holding potential preincubated for 5 mins followed by Ach stimulation by voltage-clamp based electrophysiological method", "assay_type": "cell-based, Oocyte"}, "[2]": {"biological_target": "T2, Nicotinic acetylcholine receptor alpha6/alpha3/beta4 (Homo sapiens, UniProt P30926+P32297+Q15825)", "T2 sequence (P30926 whole entry)": "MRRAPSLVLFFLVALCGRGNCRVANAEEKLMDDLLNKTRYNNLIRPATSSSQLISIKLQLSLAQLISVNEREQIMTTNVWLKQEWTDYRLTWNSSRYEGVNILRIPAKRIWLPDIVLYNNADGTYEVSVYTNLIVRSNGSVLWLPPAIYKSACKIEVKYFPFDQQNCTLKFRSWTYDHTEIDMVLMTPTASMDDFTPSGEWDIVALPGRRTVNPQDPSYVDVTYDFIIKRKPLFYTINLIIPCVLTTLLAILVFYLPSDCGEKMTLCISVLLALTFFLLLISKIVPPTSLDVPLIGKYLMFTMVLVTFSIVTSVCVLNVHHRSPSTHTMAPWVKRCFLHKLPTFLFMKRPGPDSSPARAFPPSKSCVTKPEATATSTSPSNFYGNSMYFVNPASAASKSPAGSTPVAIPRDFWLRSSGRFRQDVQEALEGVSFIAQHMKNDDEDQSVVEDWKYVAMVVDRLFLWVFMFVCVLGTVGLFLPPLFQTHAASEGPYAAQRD", "T2 sequence (P32297 whole entry)": "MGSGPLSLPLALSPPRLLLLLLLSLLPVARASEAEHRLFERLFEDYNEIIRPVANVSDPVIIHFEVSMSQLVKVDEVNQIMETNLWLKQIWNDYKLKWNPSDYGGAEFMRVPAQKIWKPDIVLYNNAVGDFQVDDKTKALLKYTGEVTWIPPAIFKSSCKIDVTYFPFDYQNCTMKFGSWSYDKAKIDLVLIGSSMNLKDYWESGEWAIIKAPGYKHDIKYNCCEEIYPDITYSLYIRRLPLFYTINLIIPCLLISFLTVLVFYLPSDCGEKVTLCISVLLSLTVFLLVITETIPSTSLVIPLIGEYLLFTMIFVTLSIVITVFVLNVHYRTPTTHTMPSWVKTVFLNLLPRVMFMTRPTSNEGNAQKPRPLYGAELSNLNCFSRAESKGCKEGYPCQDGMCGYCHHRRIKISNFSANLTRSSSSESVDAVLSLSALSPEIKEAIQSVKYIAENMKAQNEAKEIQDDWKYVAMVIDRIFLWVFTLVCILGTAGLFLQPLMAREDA", "T2 sequence (Q15825 whole entry)": "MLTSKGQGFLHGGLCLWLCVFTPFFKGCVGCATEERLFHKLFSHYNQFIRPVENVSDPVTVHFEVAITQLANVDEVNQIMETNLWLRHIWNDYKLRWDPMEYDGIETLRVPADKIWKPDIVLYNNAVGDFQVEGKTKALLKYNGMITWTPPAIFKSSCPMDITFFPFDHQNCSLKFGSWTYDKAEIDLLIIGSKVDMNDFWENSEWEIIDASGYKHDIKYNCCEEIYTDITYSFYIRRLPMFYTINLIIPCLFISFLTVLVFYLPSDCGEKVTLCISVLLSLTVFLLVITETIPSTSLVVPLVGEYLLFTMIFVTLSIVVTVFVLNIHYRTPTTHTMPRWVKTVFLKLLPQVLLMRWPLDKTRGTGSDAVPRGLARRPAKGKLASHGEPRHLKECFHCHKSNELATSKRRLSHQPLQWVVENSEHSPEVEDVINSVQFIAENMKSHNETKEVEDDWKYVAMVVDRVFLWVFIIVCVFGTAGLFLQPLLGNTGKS", "test": "Antagonist activity at rat alpha6/alpha3beta4 nAChR", "assay_type": "protein-complex assay", "conditions": "target entry is the homologue from another species"}, "[3]": {"test": "Antagonist activity at rat alpha6/ alpha3beta2beta3 nAChR"}, "[4]": {"biological_target": "T1, Neuronal acetylcholine receptor subunit alpha-7", "test": "Antagonist activity at rat alpha7 nAChR expressed in xenopus oocytes assessed as inhibition of Ach- induced response at -100 mV holding potential incubated for 200 secs followed by acetyl choline stimulation by two- electrode voltage-clamp based electrophysiological method", "assay_type": "cell-based, Oocyte"}, "[5]": {"test": "Antagonist activity at rat alpha6/ alpha3beta2beta3 nAChR expressed in xenopus oocytes assessed as inhibition of Ach- induced response at -70 mV holding potential preincubated for 5 mins followed by Ach stimulation by voltage-clamp based electrophysiological method", "assay_type": "cell-based", "conditions": "Oocyte"}, "[6]": {"biological_target": "Neuronal acetylcholine receptor; alpha3/beta2 (Rattus norvegicus, UniProt P04757+P12390)", "sequence (P04757 whole entry)": "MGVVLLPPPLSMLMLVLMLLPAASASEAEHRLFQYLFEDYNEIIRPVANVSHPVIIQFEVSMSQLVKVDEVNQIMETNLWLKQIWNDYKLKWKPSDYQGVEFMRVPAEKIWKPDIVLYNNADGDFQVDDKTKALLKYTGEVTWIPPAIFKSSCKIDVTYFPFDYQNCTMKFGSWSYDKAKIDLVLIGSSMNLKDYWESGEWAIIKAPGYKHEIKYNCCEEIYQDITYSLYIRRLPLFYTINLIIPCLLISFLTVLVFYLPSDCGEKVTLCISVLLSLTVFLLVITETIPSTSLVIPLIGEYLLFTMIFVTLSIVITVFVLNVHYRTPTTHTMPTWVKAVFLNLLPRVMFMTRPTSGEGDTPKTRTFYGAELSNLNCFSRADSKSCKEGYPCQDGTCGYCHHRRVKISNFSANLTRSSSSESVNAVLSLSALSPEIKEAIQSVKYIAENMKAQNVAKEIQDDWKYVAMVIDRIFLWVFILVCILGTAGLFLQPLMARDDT", "sequence (P12390 whole entry)": "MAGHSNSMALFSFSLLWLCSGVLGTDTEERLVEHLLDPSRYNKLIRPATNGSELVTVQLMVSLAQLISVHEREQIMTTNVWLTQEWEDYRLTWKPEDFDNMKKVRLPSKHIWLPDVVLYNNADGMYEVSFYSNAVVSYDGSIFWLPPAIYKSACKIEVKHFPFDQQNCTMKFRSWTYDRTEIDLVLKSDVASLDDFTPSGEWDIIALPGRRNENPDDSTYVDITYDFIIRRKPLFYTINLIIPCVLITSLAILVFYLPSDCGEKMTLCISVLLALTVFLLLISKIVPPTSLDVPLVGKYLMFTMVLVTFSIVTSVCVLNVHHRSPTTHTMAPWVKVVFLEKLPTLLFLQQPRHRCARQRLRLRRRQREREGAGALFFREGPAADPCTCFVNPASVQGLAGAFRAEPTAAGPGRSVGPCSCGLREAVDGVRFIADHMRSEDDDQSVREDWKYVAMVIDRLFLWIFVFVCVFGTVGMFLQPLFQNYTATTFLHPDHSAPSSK", "test": "Antagonist activity at rat alpha3beta2 nAChR expressed in xenopus oocytes assessed as inhibition of Ach- induced response at -70 mV holding potential preincubated for 5 mins followed by Ach stimulation by voltage-clamp based electrophysiological method", "assay_type": "cell-based, Oocyte"}, "[7]": {"biological_target": "T3, Neuronal acetylcholine receptor; alpha3/beta4 (Rattus norvegicus, UniProt P04757+P12392)", "T3 sequence (P04757 whole entry)": "as the sequence (P04757 whole entry) above", "T3 sequence (P12392 whole entry)": "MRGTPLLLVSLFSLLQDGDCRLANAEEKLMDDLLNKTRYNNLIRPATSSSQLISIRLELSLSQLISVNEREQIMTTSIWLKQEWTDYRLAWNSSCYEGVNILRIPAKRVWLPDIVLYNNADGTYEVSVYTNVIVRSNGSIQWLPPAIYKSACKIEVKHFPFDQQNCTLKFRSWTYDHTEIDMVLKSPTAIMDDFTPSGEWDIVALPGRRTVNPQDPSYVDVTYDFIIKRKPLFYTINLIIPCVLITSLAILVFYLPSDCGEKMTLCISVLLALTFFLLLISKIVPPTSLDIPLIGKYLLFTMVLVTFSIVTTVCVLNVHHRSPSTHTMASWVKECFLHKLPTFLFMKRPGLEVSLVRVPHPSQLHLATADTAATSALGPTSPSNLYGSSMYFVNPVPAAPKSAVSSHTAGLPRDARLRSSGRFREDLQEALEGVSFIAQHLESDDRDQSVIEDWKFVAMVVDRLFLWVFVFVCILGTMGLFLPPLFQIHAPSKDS", "test": "Antagonist activity at rat alpha3beta4 nAChR", "assay_type": "protein-complex assay"}, "[8]": {"biological_target": "T2, Nicotinic acetylcholine receptor alpha6/alpha3/beta4", "test": "Antagonist activity at rat alpha6/alpha3beta4 nAChR expressed in xenopus oocytes assessed as inhibition of Ach- induced response at -70 mV holding potential preincubated for 5 mins followed by Ach stimulation by voltage-clamp based electrophysiological method", "assay_type": "cell-based, Oocyte"}, "[9]": {"biological_target": "T3, Neuronal acetylcholine receptor; alpha3/beta4", "test": "Antagonist activity at rat alpha3beta4 nAChR expressed in xenopus oocytes assessed as inhibition of Ach- induced response at -80 mV holding potential incubated for 200 secs followed by Ach stimulation by voltage-clamp based electrophysiological method", "assay_type": "cell-based, Oocyte"}, "[10]": {"biological_target": "T1, Neuronal acetylcholine receptor subunit alpha-7", "test": "Antagonist activity at rat alpha7 nAChR expressed in xenopus oocytes assessed as inhibition of Ach- induced response at -80 mV holding potential incubated for 200 secs followed by Ach stimulation by voltage-clamp based electrophysiological method", "assay_type": "cell-based, Oocyte"}, "[11]": {"biological_target": "T3, Neuronal acetylcholine receptor; alpha3/beta4", "test": "Antagonist activity at rat alpha3beta4 nAChR expressed in xenopus oocytes assessed as inhibition of Ach- induced response at -70 mV holding potential preincubated for 5 mins followed by Ach stimulation by voltage-clamp based electrophysiological method", "assay_type": "cell-based, Oocyte"}}, "note": "pIC50: −log10 of the molar value. Where a SMILES comes first, the peptide text is derived from it. Bridges are numbered along the chain shown (N, C = ends)."}
{"smiles": "CC[C@H](C)[C@@H]1NC(=O)[C@H](Cc2cnc[nH]2)NC(=O)[C@@H]2CCCN2C(=O)[C@H](CC(N)=O)NC(=O)[C@H](CC(N)=O)NC(=O)[C@H](C(C)C)NC(=O)[C@H](CC(N)=O)NC(=O)[C@@H]2CSSC[C@H](NC(=O)CN)C(=O)N[C@@H](CSSC[C@@H](C(=O)NCC(N)=O)NC1=O)C(=O)N[C@@H](CO)C(=O)N[C@@H](Cc1cnc[nH]1)C(=O)N1CCC[C@H]1C(=O)N[C@@H](C)C(=O)N2", "note": "(H-GCCSHPACNVNNPHICG-NH2; disulfide 2-8, 3-16)", "values": [{"measurement": "pIC50", "setting": "[1]", "value": 7.57}]}
{"smiles": "CC(C)C[C@@H]1NC(=O)[C@H](C(C)C)NC(=O)[C@H](C)NC(=O)[C@@H]2CSSC[C@H](NC(=O)CN)C(=O)N[C@@H](CSSC[C@H](C(=O)NCC(=O)O)NC(=O)[C@H](Cc3ccc(O)cc3)NC1=O)C(=O)N[C@@H](CO)C(=O)N[C@@H]([C@@H](C)O)C(=O)N1CC(O)C[C@H]1C(=O)N1CCC[C@H]1C(=O)N2", "note": "(stereo partly specified)", "values": [{"measurement": "pIC50", "setting": "[2]", "value": 7.92}, {"measurement": "pIC50", "setting": "[3]", "value": 5.89}]}
{"smiles": "C[C@H](N)C(=O)N[C@H]1CSSC[C@@H]2NC(=O)[C@H](CCCNC(=N)N)NC(=O)[C@H](CCCNC(=N)N)NC(=O)[C@H](CC(=O)O)NC(=O)[C@H](CO)NC(=O)[C@H](CSSC[C@H](C(N)=O)NC(=O)[C@H](CCCNC(=N)N)NC(=O)[C@H](Cc3c[nH]c4ccccc34)NC(=O)[C@H](CCCNC(=N)N)NC2=O)NC1=O", "values": [{"measurement": "pIC50", "setting": "[1]", "value": 6.36}]}
{"smiles": "C[C@@H]1NC(=O)[C@@H]2CSSC[C@H](NC(=O)CN)C(=O)N[C@@H](CSSC[C@@H](C(N)=O)NC(=O)[C@H](CCCNC(=N)N)NC(=O)[C@H](Cc3c[nH]c4ccccc34)NC1=O)C(=O)N[C@@H](CO)C(=O)N[C@@H](CC(=O)O)C(=O)N1CCC[C@H]1C(=O)N[C@@H](CCCNC(=N)N)C(=O)N2", "values": [{"measurement": "pIC50", "setting": "[4]", "value": 7.16}]}
{"smiles": "CC(C)[C@@H]1NC(=O)[C@H](Cc2cnc[nH]2)NC(=O)[C@@H]2CCCN2C(=O)[C@H](CC(N)=O)NC(=O)[C@H](CC(N)=O)NC(=O)[C@H](C(C)C)NC(=O)[C@H](CCCNC(=N)N)NC(=O)[C@H]2CSSC[C@H](NC(=O)[C@H](CCC(=O)O)NC(=O)[C@@H](N)CC(=O)O)C(=O)N[C@@H](CSSC[C@@H](C(=O)N[C@@H](CCCNC(=N)N)C(=O)N[C@@H](CCCNC(=N)N)C(=O)N[C@@H](CCCNC(=N)N)C(=O)O)NC1=O)C(=O)N[C@@H](CO)C(=O)N[C@@H](CC(N)=O)C(=O)N1CCC[C@H]1C(=O)N[C@@H](C)C(=O)N2", "values": [{"measurement": "pIC50", "setting": "[5]", "value": 7.22}, {"measurement": "pIC50", "setting": "[1]", "value": 8.70}, {"measurement": "pIC50", "setting": "[6]", "value": 8.22}]}
{"smiles": "CC(C)C[C@@H]1NC(=O)[C@H](C(C)C)NC(=O)[C@H](C)NC(=O)[C@@H]2CSSC[C@H](NC(=O)CN)C(=O)N[C@@H](CSSC[C@H](C(=O)NCC(=O)O)NC(=O)[C@H](Cc3ccc(O)cc3)NC1=O)C(=O)N[C@@H](CO)C(=O)N[C@@H]([C@@H](C)O)C(=O)N1CCC[C@H]1C(=O)N1CCC[C@H]1C(=O)N2", "values": [{"measurement": "pIC50", "setting": "[5]", "value": 9.59}, {"measurement": "pIC50", "setting": "[7]", "value": 7.42}, {"measurement": "pIC50", "setting": "[8]", "value": 8.82}, {"measurement": "pIC50", "setting": "[6]", "value": 8.24}]}
{"smiles": "CC(C)[C@@H]1NC(=O)[C@H](Cc2cnc[nH]2)NC(=O)[C@@H]2CCCN2C(=O)[C@H](CC(N)=O)NC(=O)[C@H](CC(N)=O)NC(=O)[C@H](C(C)C)NC(=O)[C@H](CCCNC(=N)N)NC(=O)[C@@H]2CSSC[C@H](NC(=O)[C@H](CCC(=O)O)NC(=O)[C@@H](N)CC(=O)O)C(=O)N[C@@H](CSSC[C@@H](C(=O)N[C@@H](CCCNC(=N)N)C(=O)N[C@@H](CCCNC(=N)N)C(=O)N[C@@H](CCCNC(=N)N)C(=O)O)NC1=O)C(=O)N[C@@H](CO)C(=O)N[C@@H](CC(N)=O)C(=O)N1CCC[C@H]1C(=O)N[C@@H](C)C(=O)N2", "values": [{"measurement": "pIC50", "setting": "[9]", "value": 8.52}, {"measurement": "pIC50", "setting": "[10]", "value": 8.30}]}
{"smiles": "CC(C)C[C@@H]1NC(=O)[C@H](C(C)C)NC(=O)[C@H](C)NC(=O)[C@@H]2CSSC[C@H](NC(=O)CN)C(=O)N[C@@H](CSSC[C@H](C(=O)NCC(=O)O)NC(=O)[C@H](Cc3ccc(O)cc3)NC1=O)C(=O)N[C@@H](CO)C(=O)N[C@@H](C)C(=O)N1CC(O)C[C@H]1C(=O)N1CCC[C@H]1C(=O)N2", "note": "(stereo partly specified)", "values": [{"measurement": "pIC50", "setting": "[11]", "value": 5.92}, {"measurement": "pIC50", "setting": "[8]", "value": 7.24}]}
